Converted amounts (≈) assume the structure as drawn.
Assays:
[1] = biological target: T1, equine serum butyrylcholinesterase (BChE, EC 3.1.1.8) (Equus caballus, UniProt P81908); test: Inhibition of equine serum butyrylcholinesterase (Ellman assay); format: biochemical; settings: read-out: Inhibition % at 20 µM, Equine BChE
T1 construct: equine serum butyrylcholinesterase (BChE, EC 3.1.1.8); purchased Sigma-Aldrich (Saint Louis, MO, USA); host or cells: equine serum
Summary of the method: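 Ellman colorimetric assay with 0.02 unit/mL BChE, 1 mM butyrylthiocholine iodide and 0.33 mM DTNB, 2% (v/v) DMSO final; substrate added after enzyme-compound mixing. Residual activity versus inhibitor-free control, blanks without enzyme; triplicates, IC50 by linear regression.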

[2] = Oxygen radical absorbance capacity (ORAC-FL) assay; settings: n.a. = inactive; i.t.s. = interferes with test system
Summary of the method: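 Fluorescein oxidative degradation by the peroxyl radical generator AAPH is monitored in the presence of test compound, a HAT-based read-out. Activity is expressed relative to Trolox as reference antioxidant.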

[3] = biological target: porcine liver carboxylesterase (CES, EC 3.1.1.1) (Sus scrofa, UniProt Q29550); test: Inhibition of porcine liver carboxylesterase (4-NPA colorimetric assay); format: biochemical; settings: 20 µM; n.a. = inactive at 20 µM; mean ± SEM, n = 3
Chain of porcine liver carboxylesterase (CES, EC 3.1.1.1) (Q29550 19-566): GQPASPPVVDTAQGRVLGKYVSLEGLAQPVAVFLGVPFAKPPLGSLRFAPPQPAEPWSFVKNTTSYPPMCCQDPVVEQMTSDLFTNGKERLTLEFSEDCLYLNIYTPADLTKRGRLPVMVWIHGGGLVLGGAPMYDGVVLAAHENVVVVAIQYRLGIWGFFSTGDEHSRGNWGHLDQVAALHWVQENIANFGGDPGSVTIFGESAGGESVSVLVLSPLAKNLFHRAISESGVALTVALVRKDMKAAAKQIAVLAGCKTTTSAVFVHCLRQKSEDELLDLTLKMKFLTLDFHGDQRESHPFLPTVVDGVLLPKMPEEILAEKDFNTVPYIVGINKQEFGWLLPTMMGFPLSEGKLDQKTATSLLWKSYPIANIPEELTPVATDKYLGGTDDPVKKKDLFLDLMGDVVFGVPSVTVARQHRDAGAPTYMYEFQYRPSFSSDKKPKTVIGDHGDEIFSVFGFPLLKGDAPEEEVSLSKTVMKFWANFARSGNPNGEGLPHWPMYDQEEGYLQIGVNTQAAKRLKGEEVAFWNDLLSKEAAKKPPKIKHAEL
Text: The following enzymes were purchased from Sigma-Aldrich (Saint Louis, MO, USA): porcine liver carboxylesterase (CES, EC 3.1.1.1), human erythrocyte acetylcholinesterase (AChE, EC 3.1.1.7) and equine serum butyrylcholinesterase (BChE, EC 3.1.1.8). Substrates for CES, AChE and BChE were 4-nitrophenyl acetate (4-NPA), acetylthiocholine iodide (ATCh) and butyrylthiocholine iodide (BTCh), respectively, and the colorimetric reagent for the AChE and BChE assays was 5,5’-dithio-bis-(2-nitrobenzoic acid) (DTNB) (Sigma-Aldrich). All the kinetic experiments were performed under standard conditions, according to the protocol of IPAC RAS for a reversible inhibitors study.
The CES (porcine liver) activity was assessed colorimetrically in 0.1 M K/Na phosphate buffer pH 8.0, 25 °C, by measuring the absorbance of 4-nitrophenol at 405 nm. Final enzyme and substrate (4-NPA) concentrations were 0.02 unit/mL and 1 mM, respectively. Reagent blanks included all constituents except enzyme.
Test compounds were dissolved in DMSO. Reaction mixtures contained a final DMSO concentration of 2% (v/v). Enzyme inhibition was first assessed at a single concentration of 20 µM for each compound after a 5 min incubation at 25 °C in three separate experiments. […] Substrate was then added and residual enzyme activity relative to an inhibitor-free control was measured using a Bio-Rad Benchmark Plus microplate reader (Marnes-la-Coquette, France).
Measurements were performed in a Bio-Rad Benchmark Plus microplate reader. Each experiment was performed in triplicate. Plots, linear regressions and values of IC50, were determined using Origin 6.1 for Windows, OriginLab (Northampton, MA, USA). Results were calculated using GraphPad Prism version 6.05 for Windows, GraphPad Software (La Jolla, CA, USA) and presented as mean ± SEM.

HeLa tumor cell line = test: Cytotoxicity against HeLa cells (MTT assay); format: cell-based, human; settings: for IC50: Homo sapiens, HeLa, 72 h, MTT, n.a. = inactive, read-out: IC50, HeLa; for Selectivity Index (SI): ratio of average IC50 in normal fibroblasts to average IC50 for HeLa
Description: (§1) Cytotoxicity of compounds was evaluated using a culture of human dermal fibroblasts, which were isolated in the Laboratory of Cell Cultures of the Institute of Medical Cell Technologies, Ekaterinburg, Russia and a HeLa tumor cell line obtained at the shared research facility «Vertebrate cell culture collection» of the Institute of Cytology of the Russian Academy of Sciences, St. Petersburg, Russia. Cells were seeded in 96-well plates in the inoculum dose of 2 × 10^5 cells/mL and cultured for 24 h in DMEM, with 1% glutamine in the presence of 10% fetal bovine serum and gentamicin (50 mg/L) at 37 °C, with humidified atmosphere of 5% CO2. Then compounds, which were dissolved in DMSO, were added to the wells at the final concentrations of 10^–7, 10^–6, 10^–5 and 10^–4 M. The cells were incubated with compounds for 72 h, after which cell viability was assessed using the standard MTT assay. The assay was carried out in four replicates with negative (culture medium), positive (solution of the cytotoxic drug camptothecin at a concentration of 3 mM) controls and the solvent control (DMSO). The results of the MTT assay were evaluated on a Tecan Infinite M200 PRO (Tecan Austria GmbH, Grödig, Austria) plate spectrophotometer by comparing the optical density of a formazan solution at 570 nm in the assay and control wells. The half maximal inhibitory concentrations (IC50) were calculated by AAT Bioquest-calculator (https://www.aatbio.com/tools/ic50-calculator (accessed on 14 November 2022)).

human dermal fibroblasts = test: Cytotoxicity against human dermal fibroblasts (MTT assay); format: cell-based; settings: Fibroblast, 72 h, MTT, n.a. = inactive, read-out: IC50, Human Dermal Fibroblasts
Description: as §1

[4] = system: Trichophyton rubrum RCPF F 1408; test: Antifungal susceptibility testing, T. rubrum; settings: for MIC: Trichophyton rubrum, RCPFF1408, read-out: MIC for fungi strains inhibition, T. rubrum
Description: (§2) The solvent was DMSO. […] In each test, a growth control and a sterility control were used.

[5] = system: Candida albicans RCPF Y 401/NCTC 885/653; test: Antifungal susceptibility testing, C. albicans; settings: NCTC885, read-out: MIC for fungi strains inhibition, C. albicans
Description: as §2

[6] = system: Epidermophyton floccosum RCPF F 1659/17; test: Antifungal susceptibility testing, E. floccosum; settings: for MIC: Epidermophyton floccosum, RCPFF1659/17, read-out: MIC for fungi strains inhibition, E. floccosum
Description: as §2

T1 sequence (P81908 whole entry): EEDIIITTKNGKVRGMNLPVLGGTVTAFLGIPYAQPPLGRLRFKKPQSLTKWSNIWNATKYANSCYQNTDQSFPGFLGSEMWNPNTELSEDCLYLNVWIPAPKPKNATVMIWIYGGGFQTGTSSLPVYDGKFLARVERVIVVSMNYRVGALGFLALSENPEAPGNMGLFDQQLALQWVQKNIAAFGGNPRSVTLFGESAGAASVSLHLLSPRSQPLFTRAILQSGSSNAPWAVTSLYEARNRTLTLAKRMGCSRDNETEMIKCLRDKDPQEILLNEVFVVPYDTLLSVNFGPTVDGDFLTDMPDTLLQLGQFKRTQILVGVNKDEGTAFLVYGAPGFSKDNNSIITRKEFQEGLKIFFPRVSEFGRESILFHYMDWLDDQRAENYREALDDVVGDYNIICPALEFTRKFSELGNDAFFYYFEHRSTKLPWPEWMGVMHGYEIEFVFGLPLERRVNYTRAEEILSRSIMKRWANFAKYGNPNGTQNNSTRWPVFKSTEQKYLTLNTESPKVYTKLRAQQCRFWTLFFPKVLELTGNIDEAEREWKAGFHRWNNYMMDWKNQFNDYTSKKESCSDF

SMILES	inhibition at 20 µM [1]	ORAC-FL (TE, antioxidant activity in Trolox equivalents) [2]	inhibition at 20 µM [3]	IC50 (HeLa tumor cell line)	Selectivity Index (SI) (HeLa tumor cell line)	IC50 (human dermal fibroblasts)	MIC [4]	MIC [5]	MIC [6]	MIC for fungi strains inhibition, T. rubrum [4]	MIC for fungi strains inhibition, E. floccosum [6]
O=C1NN=C(C(F)(F)F)/C1=N/Nc1ccccc1 [5a, (Z)-4-(2-Phenylhydrazinylidene)-5-(trifluoromethyl)-2,4-dihydro-3H-pyrazol-3-one]	10.7 ± 1.8%	2.30 ± 0.20									
Cc1ccc(N/N=C2\C(=O)NN=C2C(F)(F)F)cc1 [5b, (4Z)-4-[2-(4-Methylphenyl)hydrazinylidene]-5-(trifluoromethyl)-2,4-dihydro-3H-pyrazol-3-one]		2.37 ± 0.32	10.1 ± 1.7%	2.26 ± 0.14 µM	3.62	8.18 ± 0.73 µM	50 µg/mL (≈ 185 µM)	200 µg/mL (≈ 740 µM)	> 200 µg/mL		
O=C1NN=C(C(F)(F)F)/C1=N/Nc1ccc(Br)cc1 [5c, (4Z)-4-[2-(4-Bromophenyl)hydrazinylidene]-5-(trifluoromethyl)-2,4-dihydro-3H-pyrazol-3-one]	5.9 ± 1%	1.73 ± 0.21	5.5 ± 0.9%				12.5 µg/mL (≈ 37.3 µM)	> 200 µg/mL	12.5 µg/mL (≈ 37.3 µM)	12.5 µg/mL	12.5 µg/mL
Cc1ccc(N/N=C2\C(=O)N(C)N=C2C(F)(F)F)cc1 [5d, (4Z)-2-Methyl-4-[2-(4-methylphenyl)hydrazinylidene]-5-(trifluoromethyl)-2,4-dihydro-3H-pyrazol-3-one]		1.27 ± 0.15					200 µg/mL (≈ 704 µM)	> 200 µg/mL	200 µg/mL (≈ 704 µM)		
Cc1ccc(N/N=C2\C(=O)N(c3ccccc3)N=C2C(F)(F)F)cc1 [5f, (4Z)-4-[2-(4-Methylphenyl)hydrazinylidene]-2-phenyl-5-(trifluoromethyl)-2,4-dihydro-3H-pyrazol-3-one]		i.t.s.		4.49 ± 0.18 µM	4.56	20.5 ± 2.52 µM	> 200 µg/mL	200 µg/mL (≈ 578 µM)	200 µg/mL (≈ 578 µM)		
CS(=O)(=O)c1ccc(N/N=C2\C(=O)N(c3ccccc3)N=C2C(F)(F)F)cc1 [5m, (4Z)-4-(2-[4-(Methylsulfonyl)phenyl]hydrazinylidene)-2-phenyl-5-(trifluoromethyl)-2,4-dihydro-3H-pyrazol-3-one]	4 ± 1%	i.t.s.	20.4 ± 1.6%				100 µg/mL (≈ 244 µM)	> 200 µg/mL	> 200 µg/mL		
Cc1ccc(N/N=C2\C(=O)N(c3ccc(S(N)(=O)=O)cc3)N=C2C(F)(F)F)cc1 [5p, (4Z)-2-[4-(Aminosulfonyl)phenyl]-4-[2-(4-methylphenyl)hydrazinylidene]-5-(trifluoromethyl)-2,4-dihydro-3H-pyrazol-3-one]	3.6 ± 0.9%	i.t.s.	5.7 ± 1%				> 200 µg/mL	> 200 µg/mL	> 200 µg/mL		
Cc1ccc(N/N=C2\C(=O)NN=C2C(F)(F)C(F)(F)F)cc1 [6a, (4Z)-4-[2-(4-Methylphenyl)hydrazinylidene]-5-(pentafluoroethyl)-2,4-dihydro-3H-pyrazol-3-one]	3.3 ± 0.9%	2.67 ± 0.29	7.8 ± 1.4%	1.47 ± 0.13 µM	8.83	13 ± 2.56 µM					
Cc1ccc(N/N=C2\C(=O)N(c3ccccc3)N=C2C(F)(F)C(F)(F)F)cc1 [6b, (4Z)-4-[2-(4-Methylphenyl)hydrazinylidene]-5-(pentafluoroethyl)-2-phenyl-2,4-dihydro-3H-pyrazol-3-one]	5.7 ± 1.3%			65.9 ± 5.22 µM	1.49	98.6 ± 6.32 µM					
Cc1ccc(N/N=C2\C(=O)NN=C2C(F)(F)C(F)(F)C(F)(F)F)cc1 [7a, (4Z)-5-(Heptafluoropropyl)-4-[2-(4-methylphenyl)hydrazinylidene]-2,4-dihydro-3H-pyrazol-3-one]	10.5 ± 1.1%	2.80 ± 0.01	9.9 ± 0.7%				> 200 µg/mL	> 200 µg/mL	200 µg/mL (≈ 540 µM)		
Cc1ccc(N/N=C2\C(=O)N(c3ccccc3)N=C2C(F)(F)C(F)(F)C(F)(F)F)cc1 [7b, (4Z)-5-(Heptafluoropropyl)-4-[2-(4-methylphenyl)hydrazinylidene]-2-phenyl-2,4-dihydro-3H-pyrazol-3-one]	4.5 ± 1.2%			59.7 ± 6.34 µM	1.24	73.8 ± 5.32 µM					
CC1=NNC(=O)/C1=N\Nc1ccc(C)cc1 [9a, (4Z)-5-Methyl-4-[2-(4-methylphenyl)hydrazinylidene]-2,4-dihydro-3H-pyrazol-3-one]	4.3 ± 1%	3.23 ± 0.50		3.16 ± 0.25 µM	7.68	24.3 ± 1.82 µM					
CC1=NN(c2ccccc2)C(=O)/C1=N\Nc1ccc(C)cc1 [9b, (4Z)-5-Methyl-4-[2-(4-methylphenyl)hydrazinylidene]-2-phenyl-2,4-dihydro-3H-pyrazol-3-one]		2.67 ± 0.58	10.3 ± 2.4%	46.5 ± 1.98 µM	0.52	24.1 ± 3.21 µM	> 200 µg/mL	> 200 µg/mL	> 200 µg/mL		
